In US20240352000A1, “NOVEL PYRIMIDINE-2,4-DIAMINE DERIVATIVES, PREPARATION METHOD THEREFOR, AND PHARMACEUTICAL COMPOSITION CONTAINING SAME AS ACTIVE INGREDIENT FOR PREVENTION OR TREATMENT OF CANCER” (KOREA RESEARCH INSTITUTE OF CHEMICAL TECHNOLOGY, priority 2021, published 2024):

Key:
EGFR del19/T790M/C797S = EGFR del19/T790M/C797S (Homo sapiens (Human), UniProt P00533, C797S/DEL746-750/T790M); assay: HTRF enzyme assay, EGFR del19/T790M/C797S mutant enzyme; format: biochemical; settings: enzyme from SignalChem, 37° C. 2 hours
Experimental: (§1) An experiment to measure the activity of the compounds of the present invention against EGFR mutant enzymes was performed as follows using the HTRF system sold by Cisbio. For the EGFR del19/T790M mutant enzyme, a recombinant protein provided by Carna Biosciences was purchased and used, and for the EGFR del19/T790M/C797S mutant enzyme, a protein provided by SignalChem was purchased and used as an enzyme source.
(§2) The composition of the assay buffer used for measuring the activity was 50 mM Tris-HCl pH 7.5, 100 mM NaCl, 7.5 mM MgCl2, 3 mM KCl, 0.01% Tween 20, 0.1% BSA, and 1 mM DTT. Here, an enzyme reaction was performed using ATP at a concentration of […] and a peptide substrate labeled with biotin at a concentration of […]. Analysis of the inhibitory effect of the compounds against the EGFR activity was conducted according to the following analysis reaction recipe. • Component 1: 4 μL of an EGFR mutant enzyme • Component 2: 2 μL of a compound solution • Component 3: 4 μL of ATP and a peptide labeled with biotin
(§3) The enzyme reaction was started by first mixing Component 1 and Component 2 and then adding Component 3. After reaction at 37° C. for 2 hours, […] of measurement solution consisting of streptavidin-XL665 and europium-labeled anti-phosphotyrosine antibody provided by Cisbio was added to the enzyme reaction solution and reacted at room temperature for 1 hour. Finally, the ratio of fluorescence values at 615 nm and 665 nm was obtained using the Envision equipment from Perkin-Elmer to quantitatively measure the enzyme activity and confirmed the inhibitory ability of the compounds. The measurement values measured at seven compound concentrations were analyzed using the Prism program (version 5.01, Graphpad Software, Inc.), and the IC50 value, which is an indicator of the inhibitory ability of the compound, was calculated.

[1] = system: Ba/F3 EGFR del19/T790M/C797S; assay: CellTiter-Glo cell viability, Ba/F3 EGFR del19/T790M/C797S; format: cell-based; settings: 72 hours
Experimental: (§4) An experiment to measure the activity of the compounds of the present invention against the mutant Ba/F3 EGFR cell line was performed as follows using the CellTiter-Glo system sold by Promega. The CellTiter-Glo assay is a method to confirm the cell viability by measuring ATP present in cells in cell culture. For the Ba/F3 EGFR del19, Ba/F3 EGFR del19/T790M, Ba/F3 del19/T790M/C797S mutant cell line, a cell line provided by Crown Bioscience was purchased and used. The Ba/F3 EGFR del19, Ba/F3 EGFR del19/T790M, Ba/F3 del19/T790M/C797S mutant cell line was cultured in RPMI containing 10% FBS and 1% penicillin-streptomycin with 1 μg of puromycin in an incubator at 37° C. and 5% CO2.
(§5) Analysis of the inhibitory ability effect of the compounds against EGFR was conducted according to the following analysis reaction recipe.
(§6) 2500 cells/90 μL were passaged and cultured in a 96-well cell culture plate, and after 24 hours, treated with the compound represented by Formula 1 at a concentration of 0, 0.01, 0.03, 0.1, 0.3, 1, 3, and 10 (μM). After reaction for 72 hours, the plate treated with the compound was left at room temperature for 30 minutes, then further treated with 100 μl of reagent, and shaken at room temperature for 10 minutes. Finally, the ratio of fluorescence values at 570 nm was obtained using the equipment to quantitatively measure and confirmed the inhibitory ability of the compounds. The measurement values measured at eight compound concentrations were analyzed using the Prism program (version 5.01, Graphpad Software, Inc.), and the IC50 value, which is an indicator of the inhibitory ability of the compound, was calculated.

Ba/F3 EGFR del19 = assay: CellTiter-Glo cell viability, Ba/F3 EGFR del19; format: cell-based; settings: 72 hours
Experimental: as §4, §5, §6

[2] = system: Ba/F3 EGFR L858R/T790M/C797S; assay: CellTiter-Glo cell viability, Ba/F3 EGFR L858R/T790M/C797S; format: cell-based; settings: 72 hours
Experimental: (§7) An experiment to measure the activity of the compounds of the present invention against the mutant Ba/F3 EGFR cell line was performed as follows using the CellTiter-Glo system sold by Promega. The CellTiter-Glo assay is a method to confirm the cell viability by measuring ATP present in cells in cell culture. The Ba/F3 EGFR L858R, Ba/F3 EGFR L858R/T790M, Ba/F3 EGFR L858R/T790M/C797S mutant cell line was used. The Ba/F3 EGFR L858R, Ba/F3 EGFR L858R/T790M, and Ba/F3 EGFR L858R/T790M/C797S mutant cell lines was cultured in RPMI containing 10% FBS and 1% penicillin-streptomycin with 1 μg of puromycin in an incubator at 37° C. and 5% CO2.
as §5
as §6, with “μl” for “μL”

EGFR del19/T790M = EGFR del19/T790M (Homo sapiens (Human), UniProt P00533, DEL746-750/T790M); assay: HTRF enzyme assay, EGFR del19/T790M mutant enzyme; format: biochemical; settings: recombinant enzyme, 37° C. 2 hours
Experimental: as §1, §2, §3

Ba/F3 EGFR L858R = assay: CellTiter-Glo cell viability, Ba/F3 EGFR L858R; format: cell-based; settings: 72 hours
Experimental: as §7, §5
as §6, with “μl” for “μL”

Ba/F3 EGFR del19/T790M = assay: CellTiter-Glo cell viability, Ba/F3 EGFR del19/T790M; format: cell-based; settings: 72 hours
Experimental: as §4, §5, §6

Ba/F3 EGFR L858R/T790M = assay: CellTiter-Glo cell viability, Ba/F3 EGFR L858R/T790M; format: cell-based; settings: 72 hours
Experimental: as §7, §5
as §6, with “μl” for “μL”

Sequence of EGFR del19/T790M (P00533 other isoform, or with tags, fused parts or gaps T790M/del 1-668/del 746-750 limits assumed): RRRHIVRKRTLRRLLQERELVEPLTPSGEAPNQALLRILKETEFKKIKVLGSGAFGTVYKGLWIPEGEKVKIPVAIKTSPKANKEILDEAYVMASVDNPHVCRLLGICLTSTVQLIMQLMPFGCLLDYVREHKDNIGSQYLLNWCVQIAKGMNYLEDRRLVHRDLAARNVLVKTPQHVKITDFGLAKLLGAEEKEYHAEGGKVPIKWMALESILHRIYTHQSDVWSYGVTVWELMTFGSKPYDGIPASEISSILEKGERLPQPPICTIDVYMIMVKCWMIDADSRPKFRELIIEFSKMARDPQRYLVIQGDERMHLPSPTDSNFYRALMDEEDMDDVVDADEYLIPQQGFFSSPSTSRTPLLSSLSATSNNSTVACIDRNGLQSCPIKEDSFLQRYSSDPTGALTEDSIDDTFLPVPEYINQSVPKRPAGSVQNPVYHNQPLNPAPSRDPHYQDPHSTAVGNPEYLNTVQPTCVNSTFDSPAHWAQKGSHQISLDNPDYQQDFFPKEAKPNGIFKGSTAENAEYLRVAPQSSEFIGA
Sequence of EGFR del19/T790M/C797S (P00533 other isoform, or with tags, fused parts or gaps T790M/C797S/del 1-694/del 746-750 limits assumed): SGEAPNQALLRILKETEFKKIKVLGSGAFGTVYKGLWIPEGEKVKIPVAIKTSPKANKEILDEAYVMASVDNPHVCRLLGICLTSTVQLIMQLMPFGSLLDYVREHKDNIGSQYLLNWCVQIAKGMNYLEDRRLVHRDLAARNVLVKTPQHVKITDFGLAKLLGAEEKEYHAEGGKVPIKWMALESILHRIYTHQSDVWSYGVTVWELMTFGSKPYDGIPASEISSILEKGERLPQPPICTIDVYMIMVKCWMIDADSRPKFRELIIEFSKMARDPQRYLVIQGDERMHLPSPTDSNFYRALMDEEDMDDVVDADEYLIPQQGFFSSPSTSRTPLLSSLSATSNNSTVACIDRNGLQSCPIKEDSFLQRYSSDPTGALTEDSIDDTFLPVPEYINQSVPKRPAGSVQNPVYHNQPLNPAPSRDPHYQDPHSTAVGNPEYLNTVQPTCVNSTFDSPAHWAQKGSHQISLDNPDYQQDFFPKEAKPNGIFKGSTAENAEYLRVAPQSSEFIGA

Row | IC50 (EGFR del19/T790M/C797S) [µM] | IC50 [1] [µM] | IC50 (Ba/F3 EGFR del19) [µM] | IC50 [2] [µM] | IC50 (EGFR del19/T790M) [µM] | IC50 (Ba/F3 EGFR L858R) [µM] | IC50 (Ba/F3 EGFR del19/T790M) [µM] | IC50 (Ba/F3 EGFR L858R/T790M) [µM] | Structure (SMILES)
1 | < 0.001 | < 0.1 | < 0.03 | < 0.1 | < 0.001 | < 0.03 | < 0.03 | < 0.03 | COc1cc(N2CCC(N(C)C)CC2)ccc1Nc1ncc(Cl)c(Nc2cccc3c2N(S(C)(=O)=O)CC3)n1 [Example 1, 5-chloro-N2-(4-(4-(dimethylamino)piperidin-1-yl)-2-methoxyphenyl)-N4-(1-(methylsulfonyl)indolin-7-yl)pyrimidine-2,4-diamine]
2 | 0.005 | > 0.1 | < 0.1 | > 0.1 | 0.002 | < 0.1 | > 0.1 | < 0.1 | COC(=O)c1cnc(Nc2ccc(N3CCC(N4CCN(C)CC4)CC3)cc2OC)nc1Nc1cccc2c1N(S(C)(=O)=O)CC2 [Example 11, methyl 2-((2-methoxy-4-(4-(4-methylpiperazin-1-yl)piperidin-1-yl)phenyl)amino)-4-((1-(methylsulfonyl)indolin-7-yl)amino)pyrimidine-5-carboxylate]
3 | < 0.001 | > 0.1 | < 0.03 | > 0.1 | < 0.001 | < 0.03 | < 0.1 | < 0.1 | COc1cc(N2CCC(N3CCN(C)CC3)CC2)ccc1Nc1ncc(C)c(Nc2cccc3c2N(S(C)(=O)=O)CC3)n1 [Example 7, N2-(2-methoxy-4-(4-(4-methylpiperazin-1-yl)piperidin-1-yl)phenyl)-5-methyl-N4-(1-(methylsulfonyl)indolin-7-yl)pyrimidine-2,4-diamine]
4 | 0.05 | > 0.1 | > 0.1 | > 0.1 | 0.06 | < 0.1 | > 0.1 | > 0.1 | COc1cc(N2CCC(N3CCN(C)CC3)CC2)ccc1Nc1ncc(C(=O)OC(C)C)c(Nc2cccc3c2N(S(C)(=O)=O)CC3)n1 [Example 10, isopropyl 2-((2-methoxy-4-(4-(4-methylpiperazin-1-yl)piperidin-1-yl)phenyl)amino)-4-((1-(methylsulfonyl)indolin-7-yl)amino)pyrimidine-5-carboxylate]
5 | < 0.001 | > 0.1 | < 0.03 | > 0.1 | < 0.001 | < 0.1 | < 0.03 | < 0.03 | COc1cc(N2CCC(N3CCN(C)CC3)CC2)ccc1Nc1ncc(C(F)(F)F)c(Nc2cccc3c2N(S(C)(=O)=O)CC3)n1 [Example 9, N2-(2-methoxy-4-(4-(4-methylpiperazin-1-yl)piperidin-1-yl)phenyl)-N4-(1-(methylsulfonyl)indolin-7-yl)-5-(trifluoromethyl)pyrimidine-2,4-diamine]
6 | < 0.001 | > 0.1 | < 0.1 |  | 0.001 | > 0.1 | < 0.1 | < 0.1 | COc1cc(N(C)CCN(C)C)ccc1Nc1ncc(Cl)c(Nc2cccc3c2N(S(C)(=O)=O)CCC3)n1 [Example 6, 5-chloro-N2-(4-((2-(dimethylamino)ethyl)(methyl)amino)-2-methoxyphenyl)-N4-(1-(methylsulfonyl)-1,2,3,4-tetrahydroquinolin-8-yl)pyrimidine-2,4-diamine]
7 | < 0.001 | > 0.1 | < 0.1 | > 0.1 | < 0.001 | < 0.03 | > 0.1 | < 0.1 | COc1cc(N2CCC(N3CCN(C)CC3)CC2)ccc1Nc1ncc(F)c(Nc2cccc3c2N(S(C)(=O)=O)CC3)n1 [Example 8, 5-fluoro-N2-(2-methoxy-4-(4-(4-methylpiperazin-1-yl)piperidin-1-yl)phenyl)-N4-(1-(methylsulfonyl)indolin-7-yl)pyrimidine-2,4-diamine]
8 | < 0.001 | < 0.03 | < 0.03 |  | < 0.001 | < 0.1 | < 0.03 | < 0.1 | COc1cc(N2CCC(N(C)C)CC2)ccc1Nc1ncc(Cl)c(Nc2cccc3c2N(S(C)(=O)=O)CCC3)n1 [Example 4, 5-chloro-N2-(4-(4-(dimethylamino)piperidin-1-yl)-2-methoxyphenyl)-N4-(1-(methylsulfonyl)-1,2,3,4-tetrahydroquinolin-8-yl)pyrimidine-2,4-diamine]
9 |  | > 0.1 | < 0.1 |  |  | > 0.1 | < 0.1 | > 0.1 | COc1cc(N(C)CCN(C)C)ccc1Nc1ncc(Cl)c(Nc2cccc3c2N(S(C)(=O)=O)CC3)n1 [Example 3, 5-chloro-N2-(4-((2-(dimethylamino)ethyl)(methyl)amino)-2-methoxyphenyl)-N4-(1-(methylsulfonyl)indolin-7-yl)pyrimidine-2,4-diamine]
